Test results as given in US11261201B2 (priority 2018, dated 2022).
In brackets after ≈: the same amount, converted by molar mass. Counter-ions that a name gives are not always drawn. Like-named read-outs stand apart in the source and are kept apart here.

Assays:
A. baumannii = assay: Gram negative MIC protocol (OD600, LB, 24 h); details: Acinetobacter baumannii
Protocol: (§1) Overnight bacterial cultures were grown in LB with no added antibiotics at 37° C. with shaking. A 1:1000 dilution of these cultures into LB was exposed to concentration gradients of compounds in 96-well plates (100 μL per well assay volume). Resulting plates were incubated at 37° C. for 24 h without shaking, and OD600 was measured at the end of the incubation. MICs were determined as the lowest concentrations at which OD600 remained at baseline.

H37RvMA = assay: Tuberculosis Alamar Blue/Resazurin assay (MIC); type: cell-based; details: Mycobacterium tuberculosis, H37RV, read-out: WT H37Rv MTB Activity
E. coli = assay: Gram negative MIC protocol (OD600, LB, 24 h); details: Escherichia coli
Protocol: as §1

[1] = read-out: MIC A. baumannii LB Media, A. baumannii, LB media, 24 h, OD600
[2] = read-out: MIC E. coli delta-TolC LB Media, E. coli delta-TolC, LB media, OD600
[3] = read-out: MIC WT E. coli LB Media, WT E. coli, LB media, OD600
[4] = read-out: MIC A. baumannii LB Media
[5] = read-out: MIC E. coli delta-TolC LB Media, E. coli delta-TolC strain, LB media, 24 h, OD600
[6] = read-out: MIC WT E. coli LB Media, wild-type E. coli, LB media, 24 h, OD600

Compound | MIC (A. baumannii; [1]) [µM] | MIC (H37RvMA; WT H37Rv MTB) [µM] | MIC (E. coli; [2]) [µM] | MIC (E. coli; [3]) [µM] | MIC (A. baumannii; [4]) [µM] | MIC (H37RvMA) [µM] | MIC (E. coli; [5]) [µM] | MIC (E. coli; [6]) [µM]
C1=C(CCNCc2ccccc2)CCC1 [B39] | > 150 | > 150 | > 150 | > 150 |  |  |  | 
c1ccc2c(c1)CCN(CCC1CCCCC1)C2 [B417, 2-(2-cyclohexylethyl)-1,2,3,4-tetrahydroisoquinoline] |  |  | > 150 | > 150 | > 150 | > 150 |  | 
NC(=O)Nc1ccccc1CNCCC1CCCCC1 [B373] | > 150 | > 150 |  |  |  |  | 150 (≈ 41.3 µg/mL) | > 150
COCc1cccc(CNCCC2CCCCC2)c1 [B350] | > 150 | > 150 |  |  |  |  | > 150 | > 150
CC(CC1CCCCC1)NCc1ccccc1CS(=O)(=O)N[C@H]1C[C@@H](C(=O)O)C1 (stereo partly drawn) [B453, (1S,3S)-3-(((2-(((1-cyclohexylpropan-2-yl)amino)methyl)phenyl)methyl)sulfonamido)cyclobutane-1-carboxylic acid] | > 150 | > 150 | 20 (≈ 8.45 µg/mL) | > 150 |  |  |  | 
CC(CC1CCCCC1)NCc1ccccc1CS(N)(=O)=O (centres unmarked) [B414, (2-(((1-cyclohexylpropan-2-yl)amino)methyl)phenyl)methanesulfonamide] | 150 (≈ 48.7 µg/mL) | > 150 | 4 (≈ 1.3 µg/mL) | 20 (≈ 6.49 µg/mL) |  |  |  | 
Clc1cccc(CNCCC2CCCCC2)c1 [B351] | > 150 | > 150 |  |  |  |  | > 150 | > 150
COc1cc(CC(C)NCc2ccccc2)ccn1 (centres unmarked) [B85] | > 150 |  | > 150 | > 150 |  | > 150 |  | 
CN(C)c1ccccc1CNCCC1CCCCC1 [B237, 2-((2-cyclohexylethylamino)methyl)-N,N-dimethylaniline hydrochloride] | > 300 | > 150 |  |  |  |  | 170 | > 300
CC(CC1CCCCC1)NCc1ccccc1CS(=O)(=O)NCC(=O)O (centres unmarked) [B448, ((2-(((1-cyclohexylpropan-2-yl)amino)methyl)benzyl)sulfonyl)glycine] | > 150 | > 150 | > 150 | > 150 |  |  |  | 
NC(=O)c1ccccc1CNCCC1CCCCC1 [B259, 2-((2-cyclohexylethylamino)methyl)benzamide trifluoroacetate] |  |  |  |  | > 150 | > 150 | 125 | > 150
COC(=O)COc1ccccc1CNC(C)CC1CCCCC1 (centres unmarked) [B362] | 150 (≈ 47.9 µg/mL) | > 150 |  |  |  |  | 7 (≈ 2.24 µg/mL) | 150 (≈ 47.9 µg/mL)
c1ccc(CNCCC2COc3ccccc3O2)cc1 (centres unmarked) [B46] | > 150 | > 150 | > 150 | > 150 |  |  |  | 
c1ccc(CNCCc2ccc3c(c2)COC3)cc1 [B65] |  |  | > 150 | > 150 | > 150 | > 150 |  | 
CC(CC1CCCCC1)NCc1ccccc1OCc1cccnc1 (centres unmarked) [B296] | > 150 | > 150 |  |  |  |  | 7 (≈ 2.37 µg/mL) | 91 (≈ 30.8 µg/mL)
COC(=O)c1ccc(COc2ccccc2CNC(C)CC2CCCCC2)o1 (centres unmarked) [B252] | 150 (≈ 57.8 µg/mL) | 150 (≈ 57.8 µg/mL) |  |  |  |  | 4 (≈ 1.54 µg/mL) | > 150
c1ccc(CNCCC2CCOCC2)cc1 [B25] | > 150 | > 150 | > 150 | > 150 |  |  |  | 
CC(CC1CCCCC1)NCc1ccccc1OCCOCC1CC1 (centres unmarked) [B261] | > 150 | 150 (≈ 51.8 µg/mL) |  |  |  |  | 4 (≈ 1.38 µg/mL) | > 150
c1ccc(C2CC2)c(CNCCC2CCCCC2)c1 [B233, 2-cyclohexyl-N-(2-cyclopropylbenzyl)ethanamine hydrochloride] | 170 | 91 |  |  |  |  | 10 | 300
CC1CCCN(C(=O)COc2ccccc2CNC(C)CC2CCCCC2)C1 (centres unmarked) [B273] | > 150 | 150 (≈ 58 µg/mL) |  |  |  |  | 4 (≈ 1.55 µg/mL) | > 150
CC(CC1CCCCC1)NCc1ccccc1CS(=O)(=O)N[C@H]1C[C@H](C(=O)O)C1 (stereo partly drawn) [B456, (1S,3S)-3-(((2-(((1-cyclohexylpropan-2-yl)amino)methyl)phenyl)methyl)sulfonamido)cyclobutane-1-carboxylic acid] | > 150 | > 150 | 33 (≈ 13.9 µg/mL) | > 150 |  |  |  | 
Cc1ccccc1COc1ccccc1CNC(C)CC1CCCCC1 (centres unmarked) [B384] | 55 (≈ 19.3 µg/mL) | 20.2 (≈ 7.1 µg/mL) |  |  |  |  | 4 (≈ 1.41 µg/mL) | 91 (≈ 32 µg/mL)
c1ccc(CNCCC23CC4CC(CC(C4)C2)C3)cc1 [B104] | > 150 | 55 (≈ 14.8 µg/mL) | 91 (≈ 24.5 µg/mL) | > 150 |  |  |  | 
CCOCCOc1ccccc1CNC(C)CC1CCCCC1 (centres unmarked) [B313] | > 150 | > 150 |  |  |  |  | 7 (≈ 2.24 µg/mL) | > 150
CC(CC1CCCCC1)NCc1ccccc1OCC(=O)N1CCCC1 (centres unmarked) [B290] | > 150 | > 150 |  |  |  |  | 33 (≈ 11.8 µg/mL) | > 150

Compound | MIC (A. baumannii; [1]) [µM] | MIC (H37RvMA; WT H37Rv MTB) [µM] | MIC (E. coli; [2]) [µM] | MIC (E. coli; [3]) [µM] | MIC (A. baumannii; [4]) [µM] | MIC (H37RvMA) [µM] | MIC (E. coli; [5]) [µM] | MIC (E. coli; [6]) [µM]
CC(CC1CCCCC1)NCc1ccccc1OC1CC2CCC1C2 (centres unmarked) [B390, N-(2-(bicyclo[2.2.1]heptan-2-yloxy)benzyl)-1-cyclohexylpropan-2-amine] | 55 (≈ 18.8 µg/mL) | 20.2 (≈ 6.9 µg/mL) |  |  |  |  | 3 (≈ 1.02 µg/mL) | 150 (≈ 51.2 µg/mL)
c1ccc(CNC2CCC2c2ccccc2)cc1 (centres unmarked) [B176] | > 300 | > 150 | > 300 | > 300 |  |  |  | 
CC(O)CCOc1ccccc1CNC(C)CC1CCCCC1 (centres unmarked) [B363] | 150 (≈ 47.9 µg/mL) | > 150 |  |  |  |  | 3 (≈ 0.958 µg/mL) | 150 (≈ 47.9 µg/mL)
c1ccc(CNCCC2CCCOC2)cc1 (centres unmarked) [B83] | > 150 | > 150 | > 150 | > 150 |  |  |  | 
c1ccc(CCNCc2ccccc2)cc1 [B181] |  |  | > 300 | > 300 | > 300 | > 150 |  | 
CCC(CC1CCCCC1)NCc1ccccc1 (centres unmarked) [B164, N-benzyl-1-cyclohexylbutan-2-amine] | > 150 | > 150 | 60 (≈ 14.7 µg/mL) | > 300 |  |  |  | 
CC(C)(CC1CCCCCC1)NCc1ccccc1 [B92] | > 150 | > 150 | > 150 | > 150 |  |  |  | 
Cc1ccc(CNCCC2=CCCCC2)cc1 [B10, 2-(cyclohex-1-en-1-yl)-N-(4-methylbenzyl)ethan-1-amine] | > 150 | > 150 | > 150 | > 150 |  |  |  | 
CC1CCCC(Oc2ccccc2CNC(C)CC2CCCCC2)C1 (centres unmarked) [B391, 1-cyclohexyl-N-(2-((3-methylcyclohexyl)oxy)benzyl)propan-2-amine] | 91 (≈ 31.3 µg/mL) | 20.2 (≈ 6.94 µg/mL) |  |  |  |  | 3 (≈ 1.03 µg/mL) | 150 (≈ 51.5 µg/mL)
c1ccc(CNCC2CC23CCCc2ccccc23)cc1 (centres unmarked) [B107] | > 150 | > 150 | > 150 | > 150 |  |  |  | 
CC(CC1CCCCC1)NCc1ccccc1OCC1CC2CCC1C2 (centres unmarked) [B386, N-(2-(bicyclo[2.2.1]heptan-2-ylmethoxy)benzyl)-1-cyclohexylpropan-2-amine] | 55 (≈ 19.6 µg/mL) | 20.2 (≈ 7.18 µg/mL) |  |  |  |  | 5 (≈ 1.78 µg/mL) | > 150
Cc1cccc(C)c1CNCCC1=CCCCC1 [B73] | > 150 | > 150 | > 150 | > 150 |  |  |  | 
CC(CC1CCCCC1)NCc1ccccc1OCC1CNC(=O)O1 (centres unmarked) [B377] | 150 (≈ 52 µg/mL) | > 150 |  |  |  |  | 2.3 (≈ 0.797 µg/mL) | 75 (≈ 26 µg/mL)
c1ccc(CNCC2CCC2)cc1 [B135] | > 150 | > 150 | > 150 | > 150 |  |  |  | 
COc1ccc(CCNCc2ccccc2)c2ccccc12 [B111] | 150 (≈ 43.7 µg/mL) | 33 (≈ 9.62 µg/mL) | 150 (≈ 43.7 µg/mL) | > 150 |  |  |  | 
COc1ccc(CC(C)(C)NCc2ccccc2)cc1 [B50] |  |  | > 150 | > 150 | > 150 | > 150 |  | 
c1ccc(CNCC2CCCCC2)cc1 [B9] | > 150 | > 150 | > 150 | > 150 |  |  |  | 
COCC(CC1CCCCC1)NCc1ccccc1 (centres unmarked) [B202, N-benzyl-1-cyclohexyl-3-methoxypropan-2-amine hydrochloride] | > 300 | > 150 |  |  |  |  | > 300 | > 300
CC(CC1CCCCC1)NCc1ccccc1OC1CC2CC1C1CCCC21 (centres unmarked) [B393, 1-cyclohexyl-N-(2-((octahydro-1H-4,7-methanoinden-5-yl)oxy)benzyl)propan-2-amine] | 150 (≈ 57.2 µg/mL) | 20.2 (≈ 7.71 µg/mL) |  |  |  |  | 7 (≈ 2.67 µg/mL) | > 150
CCSCCOc1ccccc1CNC(C)CC1CCCCC1 (centres unmarked) [B314] | 91 (≈ 30.5 µg/mL) | 150 (≈ 50.3 µg/mL) |  |  |  |  | 4 (≈ 1.34 µg/mL) | 150 (≈ 50.3 µg/mL)
CCCC(CC1CCCCC1)NCc1ccccc1 (centres unmarked) [B165, N-benzyl-1-cyclohexylpentan-2-amine] | > 150 | > 150 | 60 (≈ 15.6 µg/mL) | > 300 |  |  |  | 
CC(NCc1ccccc1)C1(C)CC1 (centres unmarked) [B149] | > 150 | > 150 | > 150 | > 150 |  |  |  | 
OB(O)Cc1ccccc1CNCCC1CCCCC1 [B376, 2-((2-cyclohexylethylamino)methyl)benzylboronic acid] | > 150 | > 150 |  |  |  |  | 91 (≈ 25 µg/mL) | 150 (≈ 41.3 µg/mL)
CC(CC1CCCCC1)NCc1ccccc1OCCC(C)(C)O (centres unmarked) [B275] | 91 (≈ 30.3 µg/mL) | > 150 |  |  |  |  | 4 (≈ 1.33 µg/mL) | 150 (≈ 50 µg/mL)
CC(CC1CCCCC1)NCc1ccccc1OCC(=O)N1CC(C)OC(C)C1 (centres unmarked) [B333] | > 150 | > 150 |  |  |  |  | 7 (≈ 2.82 µg/mL) | > 150
